Experiments:
[1] = Serious medical events in the randomized, placebo-controlled aspirin study; conditions: for Serious Bleeding, Gastrointestinal, no of subjects / Serious Bleeding, Genitourinary, no of subjects: bleeding leading to hospitalization or surgical intervention
Description: A multi-center, randomized, double-blind, placebo-controlled study was performed that examined the effects of aspirin alone as well as folate treatment combined with aspirin on the occurrence of large bowel adenomas. The study has a 3-by-2 factorial design, investigating aspirin (placebo, 81 mg/day, or 325 mg/day) and folic acid (placebo or 1 mg/day). Patients were recruited at nine centers in North America. Eligible subjects had at least one of the following: (1) one or more histologically confirmed large-bowel adenomas removed within 3 months prior to recruitment, (2) one or more histologically confirmed large-bowel adenomas removed within 16 months before recruitment and a lifetime history of 2 or more confirmed large-bowel adenomas, or (3) a histologically confirmed large-bowel adenoma at least 1 cm in diameter removed within 16 months before recruitment. […] Eligible subjects were between 21 and 80 years old, in good health, and with anticipated colonoscopic follow-up three years after the qualifying examination. Exclusion criteria included a history of a familial colorectal cancer syndrome, invasive large-bowel cancer, malabsorption syndromes, any condition potentially worsened by supplemental aspirin or folic acid, or any condition commonly treated with aspirin, non-steroidal anti-inflammatory drugs (NSAIDs), or folate (e.g., recurrent arthritis, atherosclerotic vascular disease, folic acid deficiency).
Study coordinators at each center maintained contact with the subjects on a regular basis; interval questionnaires regarding possible side effects and medical events were completed every four months by each subject.
Subjects were regularly counseled regarding avoidance of aspirin and other NSATDs. Lists of products containing aspirin, ibuprofen, or naproxen were provided, and acetaminophen was distributed for treatment of minor febrile illnesses and pain. Every four months, subjects received questionnaires regarding adherence to study treatment; use of medications, over-the-counter drugs and nutritional supplements; and occurrence of symptoms, illnesses, and hospitalizations.
The statistical analysis compared the aspirin treatment groups irrespective of folic acid treatment. Subjects who underwent a follow-up endoscopy at least one year following randomization were included in the analyses. The predefined primary statistical analysis was a 2 degree-of-freedom chi-squared test for a contingency table comparing treatment groups regarding risk of one or more new adenomas. Crude risk ratios and 95 percent confidence intervals were used to compare treatment groups to placebo. Adjusted risk ratios were obtained from log-linear models with age, gender, clinical center, number of lifetime adenomas, and duration of follow-up as covariates. […] Possible modification of treatment effects by baseline characteristics was assessed using interaction terms in the log-linear model. Counts of other clinical endpoints were compared using Fisher's exact test. To compare the effect of aspirin on different types of polyps, a logistic regression model was used with generalized estimating equations (Liang and Zeger Biometrika 1986:13-22) to account for the clustering of multiple endpoints within patients. […] Two-sided P-values <0.05 were considered statistically significant.

[2] = test system: large bowel adenomas; test: Randomized, double-blind, placebo-controlled study of aspirin on occurrence of large bowel adenomas; assay type: in vivo, humans; conditions: for Relative Crude Risk (95% CI) / Adjusted Relative Risk (95% CI): versus placebo
Text: Patients were recruited at nine centers in North America.
By protocol, subjects were to have a complete surveillance colonoscopy 34-40 months after the qualifying examination. At each colonoscopy, the endoscopist recorded the estimated size and location of all polyps and mucosal lesions suspicious for neoplasia as per usual clinical practice. Each lesion was removed and examined histologically at the clinical center and by the study pathologist. Polyps were classified as neoplastic (adenomatous) or non-neoplastic (e.g., hyperplastic) by the study pathologist.
The primary study outcome was the proportion of subjects with one or more colorectal adenomas detected during the period from one year after randomization through the anticipated surveillance follow-up. If a surveillance colonoscopy was not performed during the protocol time window, the last examination at least one year after randomization was taken as the follow-up exam. Pre-specified secondary outcomes were the numbers of large-bowel adenomas and “advanced lesions”: tubulovillous adenomas (25 to 75 percent villous features), villous adenomas (>75 percent villous), large adenomas ([…]), severe dysplasia, or invasive cancer. Separate analyses were also conducted for lesions in the left colorectum (descending colon, sigmoid colon, and rectum) and right colorectum (the remainder of the bowel).

[3] = Advanced Lesion, both aspirin groups combined
[4] = Any Adenoma, both aspirin groups combined
[5] = Tubular Adenoma, both aspirin groups combined

Structure (SMILES): CC(=O)Oc1ccccc1C(=O)O [Aspirin, acetylsalicylic acid]
- Died, percent ([1]; 81 mg Aspirin, N = 377 (Table 2)): 0.8%
- Coronary Revascularization, no of subjects ([1]; 81 mg aspirin (N = 377)): 3
- Deaths, no of subjects ([1]; 81 mg aspirin (N = 377)): 3
- Hospitalization, no of subjects ([1]; 81 mg aspirin (N = 377)): 61
- Myocardial Infarction, no of subjects ([1]; 81 mg aspirin (N = 377)): 2
- Non-Colorectal Cancer, no of subjects ([1]; 81 mg aspirin (N = 377)): 14
- Stroke, no of subjects ([1]; 81 mg aspirin (N = 377)): 2
- Serious Bleeding, Gastrointestinal, no of subjects ([1]; 81 mg aspirin (N = 377)): 2
- Serious Bleeding, Genitourinary, no of subjects ([1]; 81 mg aspirin (N = 377)): 6
- stroke judged to be hemorrhagic ([1]; 81 mg aspirin group, after review of the medical records): One
- Died, percent ([1]; 325 mg Aspirin, N = 372 (Table 2)): 1.1%
- Coronary Revascularization, no of subjects ([1]; 325 mg aspirin (N = 372)): 5
- Deaths, no of subjects ([1]; 325 mg aspirin (N = 372)): 4
- Hospitalization, no of subjects ([1]; 325 mg aspirin (N = 372)): 57
- Myocardial Infarction, no of subjects ([1]; 325 mg aspirin (N = 372)): 4
- Non-Colorectal Cancer, no of subjects ([1]; 325 mg aspirin (N = 372)): 9
- Stroke, no of subjects ([1]; 325 mg aspirin (N = 372)): 5
- Serious Bleeding, Gastrointestinal, no of subjects ([1]; 325 mg aspirin (N = 372)): 4
- Serious Bleeding, Genitourinary, no of subjects ([1]; 325 mg aspirin (N = 372)): 2
- Hospitalization, cancer and myocardial infarction frequency ([1]; aspirin groups versus placebo, differences compatible with chance): somewhat more frequently in the aspirin groups than in placebo
- patients diagnosed with a stroke (all non-fatal) ([1]; both aspirin groups together, none in placebo): Seven
- reduction in risk for advanced lesions ([2]; 81 mg aspirin): > 40%
- reduction in risk of one or more adenomas ([2]; 81 mg aspirin): 19%
- adjusted risk ratio for the detection of at least one advanced adenoma ([2]; 81 mg aspirin, among women): 0.18
- adjusted risk ratio for the detection of at least one advanced adenoma ([2]; 81 mg aspirin, among younger subjects (younger than median age 57 years at randomization)): 0.37
- reduction in risk of one or more adenomas ([2]; 325 mg aspirin, non-significant): 4%
- N with adenoma/N followed ([2]; Advanced Lesion, 81 mg/day): 28/366
- N with adenoma/N followed (percent) ([2]; Advanced Lesion, 81 mg/day): (7.7%)
- Relative Crude Risk (95% CI) ([2]; Advanced Lesion, 81 mg/day): 0.59
- Adjusted Relative Risk (95% CI) ([2]; Advanced Lesion, 81 mg/day, adjusted): 0.58
- N with adenoma/N followed ([2]; Advanced Lesion, 325 mg/day): 38/355
- N with adenoma/N followed (percent) ([2]; Advanced Lesion, 325 mg/day): (10.7%)
- Relative Crude Risk (95% CI) ([2]; Advanced Lesion, 325 mg/day): 0.83
- Adjusted Relative Risk (95% CI) ([2]; Advanced Lesion, 325 mg/day, adjusted): 0.83
- N with adenoma/N followed [2, 3]: 66/721
- N with adenoma/N followed (percent) [2, 3]: (9.2%)
- Relative Crude Risk (95% CI) [2, 3]: 0.71
- Adjusted Relative Risk (95% CI) ([2]; Advanced Lesion, both aspirin groups combined, adjusted): 0.70
- N with adenoma/N followed ([2]; Any Adenoma, 81 mg/day): 140/366
- N with adenoma/N followed (percent) ([2]; Any Adenoma, 81 mg/day): (38.3%)
- N with adenoma/N followed (percent) ([2]; Any Adenoma, 81 mg/day, listed as aspirin): 38.3%
- Relative Crude Risk (95% CI) ([2]; Any Adenoma, 81 mg/day): 0.81
- Adjusted Relative Risk (95% CI) ([2]; Any Adenoma, 81 mg/day, adjusted): 0.83
- N with adenoma/N followed ([2]; Any Adenoma, 325 mg/day): 160/355
- N with adenoma/N followed (percent) ([2]; Any Adenoma, 325 mg/day): (45.1%)
- N with adenoma/N followed (percent) ([2]; Any Adenoma, 325 mg/day, listed as aspirin): 45.1%
- Relative Crude Risk (95% CI) ([2]; Any Adenoma, 325 mg/day): 0.96
- Adjusted Relative Risk (95% CI) ([2]; Any Adenoma, 325 mg/day, adjusted): 0.95
- N with adenoma/N followed (percent) [2, 4]: (41.6%)
- N with adenoma/N followed ([2]; Any Adenoma, both aspirin groups combined (81 and 325 mg/day)): 300/721
- Relative Crude Risk (95% CI) [2, 4]: 0.88
- Adjusted Relative Risk (95% CI) ([2]; Any Adenoma, both aspirin groups combined, adjusted for age, sex, clinical center, length of follow-up, baseline number of lifetime adenoma): 0.89
- N with adenoma/N followed ([2]; Tubular Adenoma, 81 mg/day): 121/366
- N with adenoma/N followed (percent) ([2]; Tubular Adenoma, 81 mg/day): (33.1%)
- Relative Crude Risk (95% CI) ([2]; Tubular Adenoma, 81 mg/day): 0.84
- Adjusted Relative Risk (95% CI) ([2]; Tubular Adenoma, 81 mg/day, adjusted): 0.87
- N with adenoma/N followed ([2]; Tubular Adenoma, 325 mg/day): 141/355
- N with adenoma/N followed (percent) ([2]; Tubular Adenoma, 325 mg/day): (39.7%)
- Relative Crude Risk (95% CI) ([2]; Tubular Adenoma, 325 mg/day): 1.01
- Adjusted Relative Risk (95% CI) ([2]; Tubular Adenoma, 325 mg/day, adjusted): 1.00
- N with adenoma/N followed [2, 5]: 262/721
- N with adenoma/N followed (percent) [2, 5]: (36.3%)
- Relative Crude Risk (95% CI) [2, 5]: 0.92
- Adjusted Relative Risk (95% CI) ([2]; Tubular Adenoma, both aspirin groups combined, adjusted): 0.93
- reduction in risk of one or more adenomas ([2]; both aspirin groups combined, non-significant): 12%
- incidence of adenomas ([2]; patients randomized to the aspirin groups): significantly lower
